According to patent US6492531B1, “Method of treating cognitive disorders” (Warner-Lambert Company, priority 1992, dated 2002):

Experiments:
[1] = system: mice; test: mouse light/dark box habituation test; format: in vivo; settings: 0.25 mg/kg
Experimental: (§1) A test carried out using the mouse light/dark box and the rat T-maze reinforced alternation task.
On repeated exposure to the light/dark box mice habituate by moving more rapidly from the light to the dark side. The habituation occurs over a 4 to 6 day period, with a reduction in latency of movement from about 14 sec to 2 to 4 sec by the 4th day of the test.
The compounds was administered at a dose of 0.00001 mg/kg SC once daily.
The days (1-6) are along the X axis and the time in seconds is along the Y axis (latency white to black) and Day 6 scopolamine was 0.25.
∘ p <0.001 indicates improved habituation, comparison is with 1 day.
* p <0.05 to p <0.001 is improved performance, compared to control.
+ p <0.001 is scopolamine impairment.
Δ p <0.001 is inhibition of scopolamine impairment.

[2] = system: rat; test: rat T-maze reinforced alternation task; format: in vivo; settings: twice daily 0.25 mg/kg
Experimental: as §1
The X axis is the day and the Y axis is the percent correct responses.
The number of mice tested was six.
⬭ - - - ⬭ is the control vehicle.
⬬ - - - ⬬ is scopolamine at 0.25 mg/kg IP BID.

SMILES: CN1[C@@H]2C[C@@H](OC(=O)[C@H](CO)c3ccccc3)C[C@H]1[C@@H]1O[C@@H]12 [scopolamine]
- effect of scopolamine on habituation performance [1]: impairment of performance
- effect of scopolamine on task performance [2]: deficit
